Values quoted from earlier work in patent US20260263463A1, “FORMULATIONS OF DANICOPAN AND METHODS OF USE THEREOF” (Alexion Pharmaceuticals, Inc., priority 2023, published 2026).

Settings: doses of up to 1,600 mg; cited from earlier work

In the case of `CC(=O)c1nn(CC(=O)N2C[C@H](F)C[C@H]2C(=O)Nc2cccc(Br)n2)c2ccc(-c3cnc(C)nc3)cc12` [Danicopan, danicopan], the adverse effects is given as “no adverse effects”.
